These results are taken from patent publication US20180193321A1, “INDOLO[…]” (The Rockefeller University, priority 2015, published 2018).

Structures are written as SMILES.

For data set [1], the system named is HCT-116 human colon carcinoma cancer cells. The data set is described as follows: Cytotoxicity / antiproliferative activity, crystal violet viability assay. In kind it is cell-based. To be noted: HCT-116 cells, 3 days incubation, crystal violet absorbance at 590 nm relative to DMSO control, triplicate; read-out: IC50 (cytotoxicity against HCT-116). How it is done: (§1) Because known indolotryptolines are potent human cell line toxins, lazarimide C, novel compounds 6 and 7, as well as cladoniamide A as a control, were tested for cytotoxicity against HCT-116 human colon carcinoma cancer cells.
(§2) The compounds were tested for antiproliferative activity in triplicate using the colon carcinoma cell line HCT-116 (ATCC; CCL-247) [See Brattain et al., “Heterogeneity of malignant cells from a human colonic carcinoma.” Cancer Res. 41(5):1751-1756(1981), incorporated herein by reference in its entirety]. For assays, frozen HCT-116 cells were thawed and grown in McCoy's 5A Modified Medium (Gibco) supplemented with 10% (v/v) FBS. Cells were sub-cultured once, and then cells in log phase growth were harvested by trypsinization. Trypsinized cells were seeded into 96-well plates (1,000 cells/well) and incubated overnight at 37° C. in the presence of 5% CO2. Compounds 6, 7, lazarimide C and cladoniamide (10 mg/mL in DMSO) were sequentially diluted in culture media (2-fold dilution starting at 50 μg/mL) across a 96-well plate and 100 μL was transferred to the appropriate well in an assay plate. The plates were incubated at 37° C. for 3 days and then evaluated for viability using a crystal violet-based colorimetric assay [See Zivadinovic et al., “Membrane estrogen receptor-alpha levels in MCF-7 breast cancer cells predict cAMP and proliferation responses.” Breast Cancer Res. 7(1):R101-112 (2005)]. Cell viability was recorded based on the absorbance at 590 nm in compound treated well relative to DMSO control wells.

Assay in data set [2]: as above
It counts as cell-based, human. Conditions: human, HCT-116 colon carcinoma cells; HCT-116 cells, 3 days incubation, crystal violet absorbance at 590 nm relative to DMSO control, triplicate; read-out: IC50 (cytotoxicity against HCT-116). The method, then:
as §1, §2

As for `COc1c2n(c3ccccc13)[C@]1(O)C(=O)N(C)C(=O)[C@]1(O)c1c-2[nH]c2ccc(Cl)cc12` [cladoniamide A, reference compound], the IC50 (as a rule, the midpoint of a concentration-inhibition curve) in data set [1] amounted to 40.4 nM.

As to `COc1c2n(c3cc(Cl)ccc13)[C@]1(O)C(=O)N(C)C(=O)[C@]1(O)c1c-2[nH]c2ccc(Cl)cc12` [Compound 6, lazarimide B], the IC50 at 3 days in data set [2] worked out at 11.6 nM.

`CN1C(=O)[C@@]2(O)c3c([nH]c4cc(Cl)ccc34)-c3[nH]c4ccc(Cl)cc4c3[C@@]2(O)C1=O` [lazarimide C]: the IC50 at 3 days in data set [2] is 25800 nM.

With `COc1c2n(c3cc(Cl)c(O)cc13)[C@]1(O)C(=O)N(C)C(=O)[C@]1(O)c1c-2[nH]c2ccc(Cl)cc12` [Compound 7, lazarimide A], the IC50 at 3 days in data set [2] worked out at 8.4 nM.
